In patent publication US11034672B1, “Tyrosine kinase inhibitor compositions, methods of making and methods of use” (Black Diamond Therapeutics, Inc., priority 2018, dated 2021):

Key:
[1] = tested on: covalently-activated EGFR variants; test: Covalent dimer formation, Western blot under non-reducing conditions; format: cell-based
[2] = tested on: GBM; conditions: in combination with radiation and temozolomide; cited from earlier work
[3] = tested on: cells expressing ErbB ectodomain variants
[4] = molecular target: T1, EGFR WT (Homo sapiens, UniProt P00533); test: Activity for inhibiting EGFR (Table A), EGFR WT; format: cell-based; conditions: read-out: EGFR WT, potency code (IC50)
T1 sequence (P00533 25-1210 N540K): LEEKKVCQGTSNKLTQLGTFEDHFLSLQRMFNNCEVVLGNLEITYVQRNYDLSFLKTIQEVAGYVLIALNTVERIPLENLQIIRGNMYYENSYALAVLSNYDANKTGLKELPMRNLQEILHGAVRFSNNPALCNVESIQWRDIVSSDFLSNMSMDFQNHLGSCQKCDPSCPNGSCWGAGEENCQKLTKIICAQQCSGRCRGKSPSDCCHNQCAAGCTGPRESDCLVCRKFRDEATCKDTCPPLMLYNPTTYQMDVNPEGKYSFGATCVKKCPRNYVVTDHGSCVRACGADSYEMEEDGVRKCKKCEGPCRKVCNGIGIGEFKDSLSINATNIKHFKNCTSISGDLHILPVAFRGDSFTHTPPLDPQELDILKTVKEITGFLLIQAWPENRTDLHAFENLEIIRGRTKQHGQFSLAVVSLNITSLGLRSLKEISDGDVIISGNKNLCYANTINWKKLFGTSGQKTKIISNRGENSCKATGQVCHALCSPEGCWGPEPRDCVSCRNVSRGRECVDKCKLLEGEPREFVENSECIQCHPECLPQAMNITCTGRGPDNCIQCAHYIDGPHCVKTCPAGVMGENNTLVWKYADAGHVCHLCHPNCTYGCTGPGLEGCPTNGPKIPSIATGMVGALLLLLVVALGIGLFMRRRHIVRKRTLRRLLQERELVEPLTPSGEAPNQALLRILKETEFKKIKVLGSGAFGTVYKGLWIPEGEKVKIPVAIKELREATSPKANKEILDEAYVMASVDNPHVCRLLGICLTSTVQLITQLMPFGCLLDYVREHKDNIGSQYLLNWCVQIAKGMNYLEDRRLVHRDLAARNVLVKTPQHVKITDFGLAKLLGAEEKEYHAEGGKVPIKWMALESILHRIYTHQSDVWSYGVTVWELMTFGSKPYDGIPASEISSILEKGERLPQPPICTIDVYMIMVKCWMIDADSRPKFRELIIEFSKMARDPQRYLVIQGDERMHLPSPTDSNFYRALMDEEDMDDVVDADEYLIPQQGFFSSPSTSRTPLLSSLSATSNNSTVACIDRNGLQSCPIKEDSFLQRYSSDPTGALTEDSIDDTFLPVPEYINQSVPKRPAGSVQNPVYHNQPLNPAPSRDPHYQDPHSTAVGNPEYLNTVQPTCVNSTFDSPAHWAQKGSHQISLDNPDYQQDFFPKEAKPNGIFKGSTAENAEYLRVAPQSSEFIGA

[5] = molecular target: T2, HER2 S310F (Homo sapiens, UniProt P04626, S310F); test: Activity for inhibiting HER2 (Table B), HER2 S310F; format: cell-based; conditions: read-out: HER2 S310F, potency code (IC50)
T2 construct: expressed in transfected cells; host or cells: BaF3 (murine pro-B)
Protocol: (§1) EC50 values were determined with the same application.

[6] = molecular target: T3, HER2 WT (Homo sapiens, UniProt P04626); test: Activity for inhibiting HER2 (Table B), HER2 WT; format: cell-based
T3 sequence (P04626 23-1255): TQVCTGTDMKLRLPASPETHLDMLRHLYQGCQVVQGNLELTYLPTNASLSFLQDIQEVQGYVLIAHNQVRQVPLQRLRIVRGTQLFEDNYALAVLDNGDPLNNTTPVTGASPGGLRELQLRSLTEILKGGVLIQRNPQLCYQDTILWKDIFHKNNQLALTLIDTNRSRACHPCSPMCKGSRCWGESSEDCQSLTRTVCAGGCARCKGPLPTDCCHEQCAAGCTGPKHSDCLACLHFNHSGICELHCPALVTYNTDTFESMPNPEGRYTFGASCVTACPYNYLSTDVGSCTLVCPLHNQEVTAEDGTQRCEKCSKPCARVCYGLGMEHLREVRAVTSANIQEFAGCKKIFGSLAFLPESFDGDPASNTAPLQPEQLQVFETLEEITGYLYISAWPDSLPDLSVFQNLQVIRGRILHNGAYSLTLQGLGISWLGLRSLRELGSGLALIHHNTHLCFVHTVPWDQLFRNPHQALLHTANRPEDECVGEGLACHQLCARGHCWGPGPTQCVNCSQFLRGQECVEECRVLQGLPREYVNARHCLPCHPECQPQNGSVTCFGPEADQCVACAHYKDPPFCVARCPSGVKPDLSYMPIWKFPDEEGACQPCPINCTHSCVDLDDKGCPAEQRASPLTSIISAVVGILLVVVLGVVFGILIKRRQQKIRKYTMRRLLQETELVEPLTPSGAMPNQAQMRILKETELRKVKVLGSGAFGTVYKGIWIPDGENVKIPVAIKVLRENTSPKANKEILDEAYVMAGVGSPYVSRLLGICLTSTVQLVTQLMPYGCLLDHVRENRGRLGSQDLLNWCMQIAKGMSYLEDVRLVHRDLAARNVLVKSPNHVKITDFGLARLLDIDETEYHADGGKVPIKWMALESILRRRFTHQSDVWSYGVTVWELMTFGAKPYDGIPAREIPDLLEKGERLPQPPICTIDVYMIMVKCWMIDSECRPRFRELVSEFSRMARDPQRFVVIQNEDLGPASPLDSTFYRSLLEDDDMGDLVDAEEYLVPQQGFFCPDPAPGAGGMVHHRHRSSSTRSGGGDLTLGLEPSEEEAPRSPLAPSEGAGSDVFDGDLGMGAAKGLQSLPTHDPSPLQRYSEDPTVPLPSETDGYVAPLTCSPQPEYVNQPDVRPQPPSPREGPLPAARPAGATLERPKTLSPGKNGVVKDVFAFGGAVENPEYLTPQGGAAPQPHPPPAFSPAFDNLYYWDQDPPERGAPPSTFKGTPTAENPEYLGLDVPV

[7] = molecular target: T4, HER2 YVMA (Homo sapiens, UniProt P04626, INS775YVMA); test: Activity for inhibiting HER2 (Table B), HER2 YVMA; format: cell-based; conditions: read-out: HER2 YVMA, potency code (IC50)
T4 construct: expressed in transfected cells; host or cells: BaF3 (murine pro-B)
Protocol: as §1

[8] = molecular target: T4, HER2 YVMA; test: BaF3 cell proliferation assay, HER2 YVMA (Table B); format: cell-based; conditions: potency code, 3 days, CellTiterGlo, read-out: HER2 YVMA (Activity for Inhibiting HER2)
[9] = molecular target: T3, HER2 WT; test: BaF3 cell proliferation assay, HER2 WT (Table B); format: cell-based; conditions: potency code, 3 days, CellTiterGlo, read-out: HER2 WT (Activity for Inhibiting HER2)
[10] = molecular target: T1, EGFR WT; test: BaF3 cell proliferation assay, EGFR WT (Table A); format: cell-based; conditions: potency code, 3 days, CellTiterGlo, read-out: EGFR WT (Activity for Inhibiting EGFR)
Method in brief: (§2)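 Readout: EC50 for BaF3 proliferation. Cells stably expressing the receptor variant were generated by retrovirus and IL-3 independence.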

[11] = molecular target: T5, EGFR V3 (Homo sapiens, UniProt P00533, DELINS30-297G); test: Activity for inhibiting EGFR (Table A), EGFR V3 (EGFR-Viii); format: cell-based; conditions: read-out: EGFR V3, potency code (IC50)
T5 construct: expressed in transfected cells; host or cells: BaF3 (murine pro-B), retroviral pMXs-IRES-Blasticidin
T5 sequence (P00533 with tags, fused parts or gaps DELINS30-297G): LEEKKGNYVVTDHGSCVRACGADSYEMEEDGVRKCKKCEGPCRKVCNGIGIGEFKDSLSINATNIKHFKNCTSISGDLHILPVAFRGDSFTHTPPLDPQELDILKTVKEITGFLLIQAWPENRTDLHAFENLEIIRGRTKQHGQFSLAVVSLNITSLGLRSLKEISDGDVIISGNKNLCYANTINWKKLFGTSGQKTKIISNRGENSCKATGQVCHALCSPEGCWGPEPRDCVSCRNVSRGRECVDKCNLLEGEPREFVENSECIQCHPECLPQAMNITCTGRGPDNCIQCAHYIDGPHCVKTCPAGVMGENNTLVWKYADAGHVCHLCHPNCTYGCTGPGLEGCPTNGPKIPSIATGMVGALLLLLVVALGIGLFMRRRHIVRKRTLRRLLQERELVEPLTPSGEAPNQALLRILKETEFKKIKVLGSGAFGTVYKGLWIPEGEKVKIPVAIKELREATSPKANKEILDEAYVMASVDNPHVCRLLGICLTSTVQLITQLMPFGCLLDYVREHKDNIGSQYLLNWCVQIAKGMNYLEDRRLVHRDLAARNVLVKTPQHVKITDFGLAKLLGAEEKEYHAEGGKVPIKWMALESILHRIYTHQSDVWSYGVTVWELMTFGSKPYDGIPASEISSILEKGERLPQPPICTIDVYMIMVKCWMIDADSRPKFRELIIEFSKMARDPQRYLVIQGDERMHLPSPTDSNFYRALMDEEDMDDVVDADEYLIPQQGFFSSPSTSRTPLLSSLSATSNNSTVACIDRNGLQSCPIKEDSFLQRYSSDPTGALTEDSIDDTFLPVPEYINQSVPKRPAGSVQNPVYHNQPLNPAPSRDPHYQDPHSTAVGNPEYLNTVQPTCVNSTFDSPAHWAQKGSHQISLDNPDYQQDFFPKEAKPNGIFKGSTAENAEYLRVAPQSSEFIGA

[12] = molecular target: T5, EGFR V3; test: BaF3 cell proliferation assay, EGFR V3 (Table A); format: cell-based; conditions: potency code, 3 days, CellTiterGlo, read-out: EGFR V3 (Activity for Inhibiting EGFR)
Method in brief: as §2

[13] = molecular target: T2, HER2 S310F; test: BaF3 cell proliferation assay, HER2 S310F (Table B); format: cell-based; conditions: potency code, 3 days, CellTiterGlo, read-out: HER2 S310F (Activity for Inhibiting HER2)
[14] = tested on: HER2 S310F; test: Tumor pHER2/pERK AlphaLisa in mice bearing HER2 S310F BaF3 tumors (Examples 15-18); format: in vivo; conditions: two day acute oral dosing, 15 mg/kg; at peak plasma levels
Protocol: (§3) Following the second dose, tumors were collected at 2 hours, 5 hours, 12 hours and 24 hours, and analyzed for both pHER2 activity and pERK activity via AlphaLisa. Plasma was also collected at these time points and analayzed for the presence of Compound No. 21 to determine pharmacokinetic profile. The tumor tissue was cut and homogenized using the Precellys Soft Tissue Homogenizing kit (KT03961-1-00.3.2) containing T-PER tissue protein extraction reagent (Thermo Scientific #78510), supplemented with Protease Inhibitor (Sigma P8340), and Phosphatase Inhibitors II and III (Sigma P5726 and P0044). Tissue samples were homogenized in the Precellys machine by spinning two times for one minute each. Sample tubes were centrifuged for 5 min at 15,000 rpm at 4° C. The supernatant was transferred to a fresh microtube and spun again for 5 minutes at 15,000 rpm at 4° C. Supernatant was then transferred to a fresh microtube and placed on ice. The protein concentration of the supernatant was measured using the BCA reagent Kit (Thermo Scientific #23225). Tumor tissue-derived lysates were analyzed for either HER2 activity or EGFR activity by detection of pHER2 (Tyr1221/1222) or pERK (Thr202/Tyr204) phosphosites, respectively, via AlphaLisa. Briefly, tumor Lysates were diluted to 0.5 ug/ul in 1× diluted SureFire Ultra Kit Lysis Buffer (5× supplied stock) supplemented with Protease Inhibitor (Sigma P8340) and Phosphatase Inhibitor II and III (Sigma P5726 and P0044). 10 ul of total tumor lysate was added per well in triplicate to a 384-well Opti-plate (Perkin Elmer #6007290). Activation Buffer was diluted 25-fold in combined Reaction Buffer 1 and Reaction Buffer 2, and acceptor beads were diluted 50-fold in the combined Reaction Buffers. 5 ul/well of the Acceptor bead:Reaction buffer mixture was added to each well.
as §3, with “No. 5” for “No. 21”, “Buffer (X” for “Buffer (5×”
To determine the ability of Compound No. 118 to inhibit tumor growth and induce tumor regression in vivo, a mouse tumor model containing the HER2 S310F mutation was used. Athymic nude mice from Charles River Labs bearing HER2 S310F BaF3 tumors were treated with two day acute oral dosing of Compound No. 118 at 15 mg/kg. […]

[15] = molecular target: T6, EGFR SVD (Homo sapiens, UniProt P00533, DUP768-770); test: BaF3 cell proliferation assay, EGFR SVD (Table A); format: cell-based; conditions: potency code, 3 days, CellTiterGlo, read-out: EGFR SVD (Activity for Inhibiting EGFR)
T6 construct: expressed in transfected cells; host or cells: BaF3 (murine pro-B), retroviral pMXs-IRES-Blasticidin
Method in brief: as §2

[16] = molecular target: T7, EGFR NPH (Homo sapiens, UniProt P00533, DUP771-773); test: BaF3 cell proliferation assay, EGFR NPH (Table A); format: cell-based; conditions: potency code, 3 days, CellTiterGlo, read-out: EGFR NPH (Activity for Inhibiting EGFR)
T7 construct: expressed in transfected cells; host or cells: BaF3 (murine pro-B), retroviral pMXs-IRES-Blasticidin
T7 sequence (P00533 with tags, fused parts or gaps DUP771-773): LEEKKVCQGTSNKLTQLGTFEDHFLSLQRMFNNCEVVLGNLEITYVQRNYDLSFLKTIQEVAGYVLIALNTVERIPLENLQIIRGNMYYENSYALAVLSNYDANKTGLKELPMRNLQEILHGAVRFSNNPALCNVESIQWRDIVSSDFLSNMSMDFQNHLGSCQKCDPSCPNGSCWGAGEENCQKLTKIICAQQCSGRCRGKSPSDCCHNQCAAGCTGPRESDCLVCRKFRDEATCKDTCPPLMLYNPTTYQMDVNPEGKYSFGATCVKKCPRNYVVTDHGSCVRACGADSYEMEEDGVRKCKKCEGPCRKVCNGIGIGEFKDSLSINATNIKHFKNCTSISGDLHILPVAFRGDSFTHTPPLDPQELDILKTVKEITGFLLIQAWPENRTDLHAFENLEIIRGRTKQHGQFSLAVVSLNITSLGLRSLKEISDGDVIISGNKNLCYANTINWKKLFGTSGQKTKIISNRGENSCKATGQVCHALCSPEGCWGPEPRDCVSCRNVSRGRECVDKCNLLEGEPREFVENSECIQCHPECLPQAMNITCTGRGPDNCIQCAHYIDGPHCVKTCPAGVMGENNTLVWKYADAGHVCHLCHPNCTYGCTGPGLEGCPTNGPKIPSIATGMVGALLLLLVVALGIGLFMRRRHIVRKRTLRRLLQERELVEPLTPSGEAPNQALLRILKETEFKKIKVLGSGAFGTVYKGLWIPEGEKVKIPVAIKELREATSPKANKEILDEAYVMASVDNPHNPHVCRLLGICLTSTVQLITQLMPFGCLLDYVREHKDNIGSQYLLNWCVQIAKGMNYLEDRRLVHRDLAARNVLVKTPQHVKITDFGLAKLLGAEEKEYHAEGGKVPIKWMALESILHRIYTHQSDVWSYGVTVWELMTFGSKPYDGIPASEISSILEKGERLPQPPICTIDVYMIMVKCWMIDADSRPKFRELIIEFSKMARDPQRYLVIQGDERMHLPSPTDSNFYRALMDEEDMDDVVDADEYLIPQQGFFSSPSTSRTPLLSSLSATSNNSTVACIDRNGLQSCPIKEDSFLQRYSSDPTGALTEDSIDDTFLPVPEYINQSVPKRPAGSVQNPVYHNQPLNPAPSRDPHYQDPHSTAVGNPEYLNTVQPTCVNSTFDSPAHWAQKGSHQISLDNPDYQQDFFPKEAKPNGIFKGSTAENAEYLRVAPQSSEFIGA
Method in brief: as §2

[17] = molecular target: T6, EGFR SVD; test: Activity for inhibiting EGFR (Table A), EGFR SVD; format: cell-based; conditions: read-out: EGFR SVD, potency code (IC50)
[18] = molecular target: T7, EGFR NPH; test: Activity for inhibiting EGFR (Table A), EGFR NPH; format: cell-based; conditions: read-out: EGFR NPH, potency code (IC50)
[19] = tested on: BaF3-HER2-Δ16 cells; test: Proliferation of BaF3 cells driven by HER2-Δ16; format: cell-based, murine; conditions: sub-saturating concentrations
Protocol: Assay for cell proliferation: BaF3 cell lines were resuspended at 1.3E5 c/ml in RPMI containing 10% Heat Inactivated FBS, 2% L-glutamine and 1% Pen/Strep and dispensed in triplicate (17.5E4 c/well) into 96 well plates. To determine the effect of drug on cell proliferation, cells incubated for 3 days in the presence of vehicle control or test drug at varying concentrations. Inhibition of cell growth was determined by luminescent quantification of intracellular ATP content using CellTiterGlo (Promega), according to the protocol provided by the manufacturer. Comparison of cell number on day 0 versus 72 hours post drug treatment was used to plot dose-response curves. The number of viable cells was determined and normalized to vehicle-treated controls. […] EC50 values were determined with the same application.

[20] = tested on: HER2 extracellular variants; test: Covalent dimer formation of HER2 extracellular variants, Western blot; format: cell-based; conditions: Type I inhibitors
[21] = Table B, read-out: HER2 WT, potency code (IC50)
[22] = text lists of compounds, read-out: IC50 value for inhibiting wild-type HER2

Compound	Induced dimers [1]	IC50 [4] [nM]	IC50 [5] [nM]	IC50 [6, 21] [nM]	IC50 [7] [nM]	IC50 [8] [nM]	IC50 [9] [nM]	IC50 [10] [nM]	IC50 [11] [nM]	IC50 [12] [nM]	IC50 [13] [nM]	other results
C=CC(=O)Nc1cccc(Nc2nc(Nc3ccc(N4CCN(C(C)=O)CC4)cc3OC)ncc2C(F)(F)F)c1 [CO-1686]	Yes											
C#Cc1cccc(Nc2ncnc3cc(OCCOC)c(OCCOC)cc23)c1 [Erlotinib, erlotinib]												median OS (mOS) [2]: 8.6 months; median PFS (mPFS) [2]: 2.8 months
CCOc1cc2ncc(C#N)c(Nc3ccc(OCc4ccccn4)c(Cl)c3)c2cc1NC(=O)/C=C/CN(C)C [Neratinib, neratinib]												paradoxical activation [3]: devoid of paradoxical activation
CCOc1cc2ncc(C#N)c(Nc3ccc(F)c(Cl)c3)c2cc1NC(=O)/C=C/CN(C)C [Pelitinib, pelitinib]	Yes											
C=CC(=O)Nc1cccc(Oc2nc(Nc3ccc(N4CCN(C)CC4)cc3)ncc2Cl)c1 [WZ3146]	Yes											
C=CC(=O)Nc1cccc(Oc2nc(Nc3ccc(N4CCN(C)CC4)cc3OC)ncc2Cl)c1 [WZ4002]	Yes											
C=CC(=O)Nc1cccc(Sc2nc(Nc3ccc(N4CCN(C)CC4)cc3)ncc2Cl)c1 [WZ8040]	Yes											
C=CC(=O)Nc1cc2c(Nc3ccc(OCc4cccc(F)c4)c(Cl)c3)ncnc2cc1OCCN1CCOCC1 [compound 27]		300 to 500	20 to 30	10 to 20	30 to 50	30 to 50	10 to 20	300 to 500	30 to 50	30 to 50	20 to 30	IC50 [6, 22]: ≤ 20 nM; pERK1/2 (Thr202/Tyr204) in tumors [14]: reduction; pHER2 (Tyr1221/1222) in tumors [14]: reduction
C=CC(=O)Nc1cc2c(Nc3ccc(OCc4ccccn4)c(Cl)c3)ncnc2cc1C#CC(C)(C)N(C)C [compound 66]		500 to 1000	10 to 20	50 to 100	50 to 100	50 to 100	50 to 100	500 to 1000	20 to 30	20 to 30	10 to 20	IC50 [15]: 50 to 100 nM; IC50 [16]: 100 to 200 nM; IC50 [17]: 50 to 100 nM; IC50 [18]: 100 to 200 nM
C=CC(=O)Nc1cc2c(Nc3ccc(Oc4ccc(C)nc4)c(C)c3)ncnc2cc1OC1CCN(C)C1 (centres unmarked) [compound 68]		500 to 1000	30 to 50	10 to 20	300 to 500	300 to 500	10 to 20	500 to 1000	100 to 200	100 to 200	30 to 50	IC50 [15]: 500 to 1000 nM; IC50 [6, 22]: ≤ 20 nM; IC50 [16]: 500 to 1000 nM; IC50 [17]: 500 to 1000 nM; IC50 [18]: 500 to 1000 nM
C=CC(=O)Nc1cc2c(Nc3ccc(OCc4ccccn4)c(Cl)c3)ncnc2cc1N1CCC(N(C)C)CC1 [compound 78]		> 1000	50 to 100	10 to 20	500 to 1000	500 to 1000	10 to 20	> 1000	30 to 50	30 to 50	50 to 100	IC50 [15]: 200 to 300 nM; IC50 [6, 22]: ≤ 20 nM; IC50 [16]: 300 to 500 nM; IC50 [17]: 200 to 300 nM; IC50 [18]: 300 to 500 nM
C=CC(=O)Nc1cc2c(Nc3ccc(OCc4ccccn4)c(Cl)c3)ncnc2cc1OCCCN1CC(OC)C1 [compound 118]		200 to 300	10 to 20		20 to 30	20 to 30		200 to 300	20 to 30	20 to 30	10 to 20	pERK1/2 (Thr202/Tyr204) in tumors [14]: reduction; pHER2 (Tyr1221/1222) in tumors [14]: reduction
CNC(=O)CN1CCC(Oc2cc3c(Nc4cccc(Cl)c4F)ncnc3cc2OC)CC1 [sapitinib]												proliferation of BaF3 cells driven by HER2-Δ16 [19]: paradoxically stimulate the proliferation; covalent dimers for HER2 extracellular variants [20]: induce the expression of covalent dimers
